From doi:10.1101/2020.09.29.318170v1 (biorxiv, 2020) come the findings set out here.

What all share (format): biochemical
In one assay the target is T1, Pd32 (with PdPP2C79) (Phoenix dactylifera, UniProt A0A8B7C461).
T1 sequence (A0A8B7C461 1-202): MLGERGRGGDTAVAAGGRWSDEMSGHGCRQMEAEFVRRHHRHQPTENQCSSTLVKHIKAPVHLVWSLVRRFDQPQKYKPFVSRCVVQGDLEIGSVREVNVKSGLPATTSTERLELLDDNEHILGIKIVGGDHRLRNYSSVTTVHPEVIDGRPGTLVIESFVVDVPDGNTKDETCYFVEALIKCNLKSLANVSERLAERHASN
The assay can be described thus: phosphopeptide phosphatase inhibition assay. The following applies: read-out: % inhibition of PdPP2C79 at 10 μM ABA.

For another assay, the target named is T2, Pd32 (with PdPP2C55) (Phoenix dactylifera, UniProt A0A8B7C461).
T2 sequence (A0A8B7C461 1-202): T1 sequence (A0A8B7C461 1-202)
Description: phosphopeptide phosphatase inhibition assay. The conditions noted are these: read-out: % inhibition of PdPP2C55 at 10 μM ABA.

The target in another assay is T3, Pd27 (with ΔNHAB1) (Phoenix dactylifera, UniProt A0A8B7BJV2).
T3 sequence (A0A8B7BJV2 1-205): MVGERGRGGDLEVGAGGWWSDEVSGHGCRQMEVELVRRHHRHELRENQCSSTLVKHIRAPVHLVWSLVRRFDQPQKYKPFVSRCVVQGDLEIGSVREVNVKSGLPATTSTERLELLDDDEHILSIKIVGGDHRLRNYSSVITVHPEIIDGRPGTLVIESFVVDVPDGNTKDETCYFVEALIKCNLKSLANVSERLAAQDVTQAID
T3 sequence (Q9CAJ0 179-511 partner limits assumed): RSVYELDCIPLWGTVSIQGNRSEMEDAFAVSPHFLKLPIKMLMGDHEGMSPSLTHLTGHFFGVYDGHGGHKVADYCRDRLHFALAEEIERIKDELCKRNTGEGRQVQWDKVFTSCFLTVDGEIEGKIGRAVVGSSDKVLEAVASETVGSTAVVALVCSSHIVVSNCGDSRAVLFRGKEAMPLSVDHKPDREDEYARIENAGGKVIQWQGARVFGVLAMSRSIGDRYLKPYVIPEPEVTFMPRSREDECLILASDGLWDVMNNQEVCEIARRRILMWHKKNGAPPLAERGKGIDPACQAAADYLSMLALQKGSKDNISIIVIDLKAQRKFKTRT
Description: pNPP phosphatase inhibition assay.

Another assay concerns the target T4, Pd957 (with ΔNHAB1) (Phoenix dactylifera, UniProt A0A8B7BRF0).
T4 sequence (A0A8B7BRF0 1-215): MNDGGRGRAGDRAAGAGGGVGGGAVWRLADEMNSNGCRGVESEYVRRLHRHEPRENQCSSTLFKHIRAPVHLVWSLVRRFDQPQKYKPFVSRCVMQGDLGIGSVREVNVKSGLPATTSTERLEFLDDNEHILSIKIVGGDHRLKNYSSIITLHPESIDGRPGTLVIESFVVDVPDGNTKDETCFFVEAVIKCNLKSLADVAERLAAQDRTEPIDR
T4 sequence (Q9CAJ0 179-511 partner limits assumed): T3 sequence (Q9CAJ0 179-511 partner limits assumed)
The assay can be described thus: pNPP phosphatase inhibition assay. The following applies: read-out: % inhibition of HAB1 at 10 μM.

Regarding `CC1=CC(=O)CC(C)(C)[C@@]1(O)/C=C/C(C)=C\C(=O)O` [ABA], the inhibition at 10 µM was found to be 30% at Pd32 (with PdPP2C79) and 80% on Pd32 (with PdPP2C55).
Consider `CCCN1C(=O)CCc2cc(NS(=O)(=O)Cc3c(F)c(F)c(C)c(F)c3F)ccc21` [AMF4], for which, on Pd27 (with ΔNHAB1) (10 μM agonist, 1 μM ΔNHAB1, 2 μM receptor, 15 mM pNPP, receptor agonist), the “% inhibition of HAB1 at 10 μM” value was 80%.
Regarding `CCCN1C(=O)CCc2cc(NS(=O)(=O)Cc3ccc(C)cc3)ccc21` [quinabactin], the inhibition at 10 µM on Pd957 (with ΔNHAB1) was 20 to 30%; at Pd27 (with ΔNHAB1) (read-out: % inhibition of HAB1 at 10 μM), 80%.

What is called inhibition is the relative decrease from the control value, in per cent.
